Reference: US20250134895A1, “METHODS AND COMPOSITIONS FOR TREATING ALPHA-SYNUCLEIN-MEDIATED NEURODEGENERATION” (UNIVERSITY HEALTH NETWORK, priority 2021, published 2025)

Experiments:
[1] = system: full-length Gaussia princeps luciferase; test: Activity of full-length Gaussia luciferase alone in H4 cells; type: cell-based; conditions: 10 μM, FIG. 14
Method: For controls in this assay, vehicle (i.e., DMSO), rapamycin, and bafilomycin A were used. Rapamycin, or sirolimus, is a small molecule that activates autophagy by inhibiting mTOR (mammalian target of rapamycin). […] To test this possibility, cells expressing α-synuclein were treated with each of the compounds and a cell permeable, resazurin-based assay was used to test for cell viability.
H4 neuroglioma cells (ATCC, HTB-148) were maintained in Dulbecco's Modified Eagle Medium plus high glucose, L-glutamine, and sodium pyruvate (ThermoFisher, 11995-065) with 10% heat-inactivated fetal bovine serum (ThermoFisher, 16140071) and 1% antibiotic-antimycotic cocktail (ThermoFisher, 15240062) at 37° C. and 5% CO2. DNA expression constructs encoding for full-length human α-synuclein fused to the N-terminal fragment of Gaussia princeps luciferase (syn-luc1), full-length human α-synuclein fused to the C-terminal fragment of Gaussia princeps luciferase (syn-luc2), and full-length Gaussia princeps luciferase were kindly provided by Dr. Pamela McLean, Mayo Clinic Jacksonville.^33 Cells were transiently co-transfected with syn-luc1 and syn-luc2 or transfected with luciferase alone using Superfect transfection reagent (Qiagen, 301305) according to the manufacturer's instructions. Twenty-four hours after transfection, cells were plated on a 96-well microplate at 60,000 cells per well. Twenty-four hours after plating, cells were treated with drugs or vehicle control. Following 24 hours of treatment, cells were washed 1 time with PBS and bioluminescence was measured using an automated CLARIOstar plate reader (Mandel, 430-0505). Cell permeable, native coelenterazine was used as the Gaussia luciferase substrate. Lyophilized coelenterazine (Nanolight, 303-500) was reconstituted in NanoFuel Solvent (Nanolight, 399-1), then diluted in PBS to 16.6 μg/mL, and dispensed per well to a final concentration of 20 μM). The bioluminescent signal generated by the luciferase enzyme was assessed at 470 nm over 5 seconds. Raw luminescence units were normalized to the DMSO vehicle control of each 96-well microplate. To assess cell viability, H4 neuroglioma cells were prepared and treated as described above and, 1 hour prior to viability analysis, cells were treated with PrestoBlue viability reagent (ThermoFisher, A13261) according to the manufacturer's instructions. Fluorescence was automatically measured using a CLARIOstar plate reader (Mandel, 430-0505) and then normalized to the fluorescence measure of the DMSO vehicle control.

control GFP C. elegans = test: Coiler score and locomotion of control GFP C. elegans; type: in vivo, Caenorhabditis elegans
Method: Animals were synchronized by isolating eggs using alkaline hypochlorite treatment and hatching overnight. Larvae were plated onto NGM agar plates with OP50 and grown for 4 days before recording locomotion. For individual C. elegans recordings, a single adult animal was randomly picked, washed for 1 to 2 minutes in M9 buffer, and then transferred to a fresh NGM plate without food for imaging. Video images were acquired (2 frames per second) for up to 6 minutes using a sCMOS camera (pco.edge, PCO) mounted on a stereomicroscope (Olympus MVX10 MacroView) controlled using the μManager software.^55 A total of 40 individual animals were imaged for each strain. For C. elegans population recordings, ten adult animals were randomly removed using an eyelash pick, washed for 1 minute in M9 buffer, and then transferred to a fresh NGM plate without food, with a ring of copper sulfate solution (150 mM) around the area of recording (a chemorepellent to keep the animals in the recording frame). Exploratory locomotion was recorded using a CCD camera (GX1920, Allied Vision) which was attached to a dissecting stereomicroscope (Leica M165C, 1.0× PlanApo lens). […] Using ImageJ, the displacement, perimeter, and area of each animal was calculated, from which a circularity value was computed using the following formula: circularity=4π(A/P^2), where A is the area of the animal's body and P is the perimeter of the animal's body (both expressed in arbitrary pixel units). […] Using MATLAB (Mathworks), various behavioural metrics including the coiler score were calculated, which is the percentage of frames with a circularity value >0.6. Speed was automatically computed from the ImageJ based WrmTrk plugin as the distance travelled by each animal (in pixels) over the amount of time that it was tracked (in seconds).56 Average speed was determined by calculating the weighted average of each tracked animal's speed within a single population of animals. […]
C. elegans were grown and maintained as previously described (Examples 1-6). […] After 72 hours of drug treatment, animals were randomly picked, washed, and recorded. […]

α-synuclein oligomers = α-synuclein oligomers (Homo sapiens, UniProt P37840); test: Venus YFP protein-fragment complementation assay in rat primary cortical neurons; type: cell-based; conditions: 10 μM, 72 hours
Method: Specifically, adeno-associated viral vectors (AAV) were used to co-express human α-synuclein tagged with the N- or C-terminal half of Venus yellow fluorescent protein (YFP) in rat cortical neurons.
Pregnant Sprague Dawley rats (E17) were purchased from Charles River. Embryos were surgically removed, and neurons were harvested in a sterile environment. Neurons were plated on poly-D-lysine coated glass coverslips at a density of 5×10^5 cells per well in Neurobasal-A medium, (Gibco, 10888022) supplemented with B27 (2%) (Gibco, 17504044), antibiotic-antimycotic (1%) (Gibco, 15240062), and Glutamax (1%) (Gibco, 35050061). Fifty percent media changes were performed every 3 days. […] Two days post isolation, neurons were co-transduced with AAV-V1 S and AAV-SV2 or transduced with AAV-Venus alone at a MOI of 3,000. […] Concentrations were selected to avoid neuron toxicity according to previous reports.^57-61 Drug-containing media was removed, and cells were washed 1 time with ice-cold PBS before being fixed with 4% PFA (Sigma) at room temperature for 10 minutes. Levels of α-synuclein oligomers were measured by YFP fluorescence. […] YFP fluorescence intensity was analysed automatically using Imaris imaging software (Oxford Instruments). […]

YFP fluorescence compared with vehicle control (α-synuclein oligomers): significantly reduced
Compound: Nc1nc(NC2CC2)c2ncn([C@H]3C=C[C@@H](CO)C3)c2n1 [Abacavir, abacavir]
changes in the activity of full-length Gaussia luciferase alone [1]: No statistically significant changes
speed of GFP worms (control GFP C. elegans; 100 μM): no differences
coiling / coiler score of control GFP animals (control GFP C. elegans; 100 μM of drug): no differences
